“And” between values parts separate entries of the source, which are not always exact repeats. Equal values may be shown once.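 Test compounds were applied to cells in 96-well plates for 48 hours at 5 doses. GI50 = concentration required for 50% inhibition of growth. At the TGI there is no net growth.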
Experiments:
Experiment in all cases: NCI anticancer screen, dose series, 48 h; in the data active = GI50 below about 0.43 µM; inactive = the rest
786-0 renal = test system: 786-0 renal
SF-295 CNS = test system: SF-295 CNS
SF-268 CNS = test system: SF-268 CNS
NCI-H226 lung = test system: NCI-H226 lung
KM20L2 colon = test system: KM20L2 colon
BT-549 breast = test system: BT-549 breast
K-562 leukemia = test system: K-562 leukemia
SK-MEL-28 melanoma = test system: SK-MEL-28 melanoma
SNB-19 CNS = test system: SNB-19 CNS
SNB-78 CNS = test system: SNB-78 CNS
HOP-18 NSCLC = test system: HOP-18 NSCLC
HT29 colon = test system: HT29 colon
T-47D breast = test system: T-47D breast
SN12C renal = test system: SN12C renal
DLD-1 colon = test system: DLD-1 colon
U251 CNS = test system: U251 CNS
M19-MEL melanoma = test system: M19-MEL melanoma
IGROV1 ovarian = test system: IGROV1 ovarian
KM12 colon = test system: KM12 colon
SNB-75 CNS = test system: SNB-75 CNS
SW-620 colon = test system: SW-620 colon
SR leukemia = test system: SR leukemia
HL-60(TB) leukemia = test system: HL-60(TB) leukemia
TK-10 renal = test system: TK-10 renal
EKVX NSCLC = test system: EKVX NSCLC
MALME-3M melanoma = test system: MALME-3M melanoma
NCI-H522 lung = test system: NCI-H522 lung
UACC-62 melanoma = test system: UACC-62 melanoma
M14 melanoma = test system: M14 melanoma
NCI-H23 lung = test system: NCI-H23 lung
HCC-2998 colon = test system: HCC-2998 colon
RPMI-8226 leukemia = test system: RPMI-8226 leukemia
HCT-15 colon = test system: HCT-15 colon
LXFL 529 NSCLC = test system: LXFL 529 NSCLC
UO-31 renal = test system: UO-31 renal
RXF 393 renal = test system: RXF 393 renal
LOX IMVI melanoma = test system: LOX IMVI melanoma
OVCAR-3 ovarian = test system: OVCAR-3 ovarian
CCRF-CEM leukemia = test system: CCRF-CEM leukemia
DMS 114 small cell lung = test system: DMS 114 small cell lung
OVCAR-8 ovarian = test system: OVCAR-8 ovarian
HCT-116 colon = test system: HCT-116 colon
UACC-257 melanoma = test system: UACC-257 melanoma
COLO 205 colon = test system: COLO 205 colon
HOP-62 NSCLC = test system: HOP-62 NSCLC
SK-OV-3 ovarian = test system: SK-OV-3 ovarian
A549 NSCLC = test system: A549 NSCLC
SF-539 CNS = test system: SF-539 CNS
ACHN renal = test system: ACHN renal
MOLT-4 leukemia = test system: MOLT-4 leukemia
NCI-H460 lung = test system: NCI-H460 lung
SK-MEL-5 melanoma = test system: SK-MEL-5 melanoma
OVCAR-4 ovarian = test system: OVCAR-4 ovarian
XF 498 CNS = test system: XF 498 CNS
DMS 273 small cell lung = test system: DMS 273 small cell lung
HOP-92 NSCLC = test system: HOP-92 NSCLC
A498 renal = test system: A498 renal
CAKI-1 renal = test system: CAKI-1 renal
OVCAR-5 ovarian = test system: OVCAR-5 ovarian

Nc1nc(=S)c2ncn(C3CC(O)C(CO)O3)c2[nH]1 (centres undefined)
> 5000 µM: TGI (SNB-19 CNS) | TGI (SNB-78 CNS)
438 µM and > 3110 µM: TGI (T-47D breast)
> 2350 µM: TGI (786-0 renal)
> 466 µM and 2190 µM: TGI (HT29 colon)
75 µM and 700 µM: TGI (KM12 colon)
883 µM and 4760 µM: TGI (BT-549 breast)
340 µM and 1740 µM: TGI (DLD-1 colon)
353 µM and 3130 µM: TGI (SN12C renal)
555 µM and > 5000 µM: TGI (SF-268 CNS)
inactive: GI50 (SNB-19 CNS) 77.3 µM and 753 µM
333 µM and 2590 µM: TGI (K-562 leukemia)
> 983 µM and 4020 µM: TGI (HOP-18 NSCLC)
385 µM and 3540 µM: TGI (SW-620 colon)
> 4680 µM: TGI (M19-MEL melanoma)
382 µM and 3310 µM: TGI (SF-295 CNS)
421 µM and 2940 µM: TGI (KM20L2 colon)
377 µM and 3000 µM: TGI (SNB-75 CNS)
521 µM and 2870 µM: TGI (IGROV1 ovarian)
594 µM and > 5000 µM: TGI (SK-MEL-28 melanoma)
639 µM and > 5000 µM: TGI (NCI-H226 lung)
901 µM and > 4730 µM: TGI (U251 CNS)

O=C1C=CC(=Nc2ccc3c(c2)C(Br)c2ccccc2-3)O1 (centres undefined)
81.7 µM: TGI (NCI-H522 lung)
> 100 µM: TGI (786-0 renal) | TGI (SR leukemia) | TGI (SF-295 CNS) | TGI (HL-60(TB) leukemia) | TGI (TK-10 renal) | TGI (SF-268 CNS) | TGI (EKVX NSCLC) | TGI (MALME-3M melanoma) | TGI (UACC-62 melanoma) | TGI (M14 melanoma) | TGI (NCI-H23 lung) | TGI (HCC-2998 colon) | TGI (RPMI-8226 leukemia) | TGI (HCT-15 colon) | TGI (LXFL 529 NSCLC) | TGI (UO-31 renal) | TGI (RXF 393 renal) | TGI (K-562 leukemia) | TGI (SK-MEL-28 melanoma) | TGI (LOX IMVI melanoma) | TGI (SNB-19 CNS) | TGI (SNB-78 CNS) | TGI (OVCAR-3 ovarian) | TGI (CCRF-CEM leukemia) | TGI (DMS 114 small cell lung) | TGI (DLD-1 colon) | TGI (OVCAR-8 ovarian) | TGI (U251 CNS) | TGI (M19-MEL melanoma) | TGI (HCT-116 colon) | TGI (UACC-257 melanoma) | TGI (IGROV1 ovarian) | TGI (COLO 205 colon) | TGI (SNB-75 CNS) | TGI (HOP-62 NSCLC) | TGI (SK-OV-3 ovarian) | TGI (A549 NSCLC) | TGI (SF-539 CNS) | TGI (SW-620 colon) | TGI (ACHN renal) | TGI (MOLT-4 leukemia) | TGI (NCI-H460 lung)
49.9 µM: TGI (SN12C renal)

CCN(CC)c1c(C(=O)/C=C/c2ccccc2)c(-c2ccccc2)nn(C)c1=O
35.9 µM: TGI (LOX IMVI melanoma)
> 100 µM: TGI (786-0 renal) | TGI (SR leukemia) | TGI (SF-295 CNS) | TGI (HL-60(TB) leukemia) | TGI (TK-10 renal) | TGI (SF-268 CNS) | TGI (SK-MEL-5 melanoma) | TGI (EKVX NSCLC) | TGI (MALME-3M melanoma) | TGI (NCI-H522 lung) | TGI (UACC-62 melanoma) | TGI (LXFL 529 NSCLC) | TGI (NCI-H226 lung) | TGI (KM20L2 colon) | TGI (OVCAR-4 ovarian) | TGI (XF 498 CNS) | TGI (UO-31 renal) | TGI (RXF 393 renal) | TGI (DMS 273 small cell lung) | TGI (K-562 leukemia) | TGI (SK-MEL-28 melanoma) | TGI (SNB-19 CNS) | TGI (HT29 colon) | TGI (SN12C renal) | TGI (DMS 114 small cell lung) | TGI (DLD-1 colon) | TGI (OVCAR-8 ovarian) | TGI (M19-MEL melanoma) | TGI (UACC-257 melanoma) | TGI (HOP-92 NSCLC) | TGI (A498 renal) | TGI (IGROV1 ovarian) | TGI (KM12 colon) | TGI (COLO 205 colon) | TGI (HOP-62 NSCLC) | TGI (CAKI-1 renal) | TGI (SK-OV-3 ovarian) | TGI (A549 NSCLC) | TGI (SF-539 CNS) | TGI (OVCAR-5 ovarian) | TGI (ACHN renal) | TGI (NCI-H460 lung)

Reference: PubChem BioAssay (NCI)
